The subject of experiment [1] is HeLa. Kind of experiment: Antiproliferative activity against Homo sapiens (human) HeLa cells assessed as growth inhibition at 25 uM after 48 hr by MTT assay. Type of experiment: functional, cell-based.
In experiment [2] the test system is HeLa. In words: Antiproliferative activity against Homo sapiens (human) HeLa cells assessed as growth inhibition at 25 uM after 48 hr by MTT assay in presence of 50 uM CuCl2. Type of experiment: functional.
Experiment [3] concerns HeLa. In words: Antiproliferative activity against Homo sapiens (human) HeLa cells assessed as growth inhibition after 48 hr by MTT assay. Type of experiment: functional.
Experiment [4] has as its system HeLa. In words: Antiproliferative activity against Homo sapiens (human) HeLa cells assessed as growth inhibition after 48 hr by MTT assay in presence of 50 uM CuCl2. Type of experiment: functional.
In experiment [5] the test system is HeLa. In words: Induction of cell cycle arrest in Homo sapiens (human) HeLa cells assessed as accumulation of cells at sub-G1 phase at 25 uM after 24 hr by propidium iodide staining based flow cytometry in presence of 50 uM CuCl2 (reference value: 3.22%). Type of experiment: functional.
Experiment [6] has as its system HeLa. In words: Induction of cell cycle arrest in Homo sapiens (human) HeLa cells assessed as accumulation of cells at sub-G1 phase at 25 uM after 24 hr by propidium iodide staining based flow cytometry (reference value: 3.41%). Type of experiment: functional.
The subject of experiment [7] is HeLa. Kind of experiment: Induction of apoptosis in Homo sapiens (human) HeLa cells assessed as decrease in 32 kDa procaspase-3 level at 15 uM after 24 hr by Western blot analysis in presence of 50 uM CuCl2. The class given is functional, cell-based.
In experiment [8] the test system is HeLa. In words: Induction of cell cycle arrest in Homo sapiens (human) HeLa cells assessed as accumulation of cells at sub-G1 phase at 5 uM after 24 hr by propidium iodide staining based flow cytometry in presence of 50 uM CuCl2 (reference value: 3.22%). The class given is functional.
Experiment [9] has as its target MAP kinase p38 (Homo sapiens) (UniProt O15264+Q15759+Q16539+P53778). In words: Increase in p38 MAPK phosphorylation in Homo sapiens (human) HeLa cells at 15 uM after 24 hr by Western blot analysis in presence of 50 uM CuCl2. The class given is cell-based.
Experiment [10] has as its system HeLa. Kind of experiment: Increase in ERK phosphorylation in Homo sapiens (human) HeLa cells at 15 uM after 24 hr by Western blot analysis in presence of 50 uM CuCl2. The class given is cell-based.
Experiment [11] relates to HeLa. In words: Antiproliferative activity against Homo sapiens (human) HeLa cells assessed as growth inhibition at 75 uM after 48 hr by MTT assay. The following applies: read-out: GI. The class given is functional.
Experiment [12] deals with HeLa. Kind of experiment: Induction of cell cycle arrest in Homo sapiens (human) HeLa cells assessed as accumulation of cells at sub-G1 phase at 15 uM after 24 hr by propidium iodide staining based flow cytometry (reference value: 3.41%). The class given is functional.
Experiment [13] relates to HeLa. In words: Induction of apoptosis in Homo sapiens (human) HeLa cells assessed as PARP cleavage at 15 uM after 24 hr by Western blot analysis in presence of 50 uM CuCl2. The class given is functional, cell-based.
Experiment [14] relates to HeLa. Kind of experiment: Induction of cell cycle arrest in Homo sapiens (human) HeLa cells assessed as accumulation of cells at sub-G1 phase at 5 uM after 24 hr by propidium iodide staining based flow cytometry (reference value: 3.41%). The class given is functional.
Experiment [15] has as its system HeLa. In words: Induction of cell cycle arrest in Homo sapiens (human) HeLa cells assessed as accumulation of cells at sub-G1 phase at 15 uM after 24 hr by propidium iodide staining based flow cytometry in presence of 50 uM CuCl2 (reference value: 3.22%). Type of experiment: functional.

The structures appear in SMILES notation. The source made the active and inactive calls. The calls are words filed in the database; no cut-off is given here.

As for `O=c1cc(/C=C/c2ccccc2)occ1O`, the “growth inhibition (GI)” value in the experiment on HeLa [1] is “inactive”. In the experiment on HeLa [2], the “growth inhibition (GI)” value was determined as 90%. In addition, the GI50 with HeLa [3] was 64.5 µM; with HeLa [4] it was 11.9 µM.
Regarding `O=c1cc(COc2cccc(O)c2)occ1O`, the “growth inhibition (GI)” value in the experiment with HeLa [1] and in the experiment with HeLa [2] was “inactive” in each case.
Take `O=c1cc(CO)occ1O` [KOJIC ACID]: the “growth inhibition (GI)” value with HeLa [1] and with HeLa [2] was “inactive” in each case. Further, the Activity in the experiment on HeLa [5] is 3.57%; in the experiment with HeLa [6], 2.16%.
In the case of `O=c1cc(/C=C/c2ccc(O)c(O)c2)occ1O`, the “growth inhibition (GI)” value in the experiment with HeLa [1] and in the experiment with HeLa [2] was “inactive” in each case.
Regarding `COc1ccc(COc2coc(/C=C/c3ccccc3)cc2=O)cc1`, the “growth inhibition (GI)” value in the experiment on HeLa [2] was “inactive”.
For `O=c1cc(CN2CCN(S(=O)(=O)c3ccccc3)CC2)occ1O`, in the experiment with HeLa [2], the “growth inhibition (GI)” value came out at 35%.
For `O=c1cc(COc2cccc3cccnc23)occ1O`, the result (in the experiment on HeLa [7]; in experiment [9]; in the experiment with HeLa [10]; in the experiment with HeLa [13]) was Active. In addition, the Activity in the experiment with HeLa [8] came to 11.58%; with HeLa [12], 5.85%; in the experiment on HeLa [14] it was 5.09%; with HeLa [15], 48.56%. In addition, in the experiment with HeLa [1], the “growth inhibition (GI)” value is “inactive”. In addition, the “growth inhibition (GI)” value in the experiment with HeLa [2] turned out to be 95%. Further, in the experiment on HeLa [11], the inhibition of growth at 75 µM came to 15.2%. The GI50 in the experiment on HeLa [4] amounted to 7.1 µM.

The values are drawn from ChEMBL document CHEMBL3045358, “Synthesis of kojic acid-derived copper-chelating apoptosis inducing agents” (2013).
